System: antibodies in sera of individuals which have been and/or are infected by SARS-CoV (SARS-green, SARS-yellow, 1a, 1b, 2, 6, 37, 62, London)
Format: binding, human

| Sequence | recognition by sera of SARS-CoV infected individuals, looped/cyclic form | recognition by sera of SARS-CoV infected individuals, linear form |
| --- | --- | --- |
| AKNLNESLIDLQELG [SEQ ID NO:1186] | recognized in looped/cyclic form |  |
| AKTSVDCNMYICGDS [SEQ ID NO:742] |  | recognized in linear form |
| ALNTLVKQLSSNFGA [SEQ ID NO:968] | recognized in looped/cyclic form |  |
| ALVSGTATAGWTFGA [SEQ ID NO:886] |  | recognized in linear form |
| AQALNTLVKQLSSNF [SEQ ID NO:966] | recognized in looped/cyclic form |  |
| ATAGWTFGAGAALQI [SEQ ID NO:892] |  | recognized in linear form |
| CNMYICGDSTECANL [SEQ ID NO:748] |  | recognized in linear form |
| CTPPALNCYWPLNDY [SEQ ID NO:495] | recognized in looped/cyclic form |  |
| DCNMYICGDSTECAN [SEQ ID NO:747] |  | recognized in linear form |
| DKVEAEVQIDRLITG [SEQ ID NO:995] | recognized in looped/cyclic form |  |
| DKYFKNHTSPDVDLG [SEQ ID NO:1149] | recognized in looped/cyclic form |  |
| DPLQPELDSFKEELD [SEQ ID NO:1137] | recognized in looped/cyclic form |  |
| DRLNEVAKNLNESLI [SEQ ID NO:1180] | recognized in looped/cyclic form |  |
| DSFKEELDKYFKNHT [SEQ ID NO:1144] | recognized in looped/cyclic form |  |
| DVVNQNAQALNTLVK [SEQ ID NO:960] | recognized in looped/cyclic form |  |
| ELDKYFKNHTSPDVD [SEQ ID NO:1147] | recognized in looped/cyclic form |  |
| ELDSFKEELDKYFKN [SEQ ID NO:1142] | recognized in looped/cyclic form |  |
| ESLTTTSTALGKLQD [SEQ ID NO:946] | recognized in looped/cyclic form |  |
| EVAKNLNESLIDLQE [SEQ ID NO:1184] | recognized in looped/cyclic form |  |
| EVMPVSMAKTSVDCN [SEQ ID NO:735] | recognized in looped/cyclic form |  |
| FIAGLIAIVMVTILL [SEQ ID NO:1216] | recognized in looped/cyclic form |  |

| Sequence | recognition by sera of SARS-CoV infected individuals, looped/cyclic form | recognition by sera of SARS-CoV infected individuals, linear form |
| --- | --- | --- |
| FIFLLFLTLTSGSDL [SEQ ID NO:41] | recognized in looped/cyclic form |  |
| FKNHTSPDVDLGDIS [SEQ ID NO:1152] | recognized in looped/cyclic form |  |
| FLLFLTLTSGSDLDR [SEQ ID NO:43] | recognized in looped/cyclic form |  |
| FLTLTSGSDLDRCTT [SEQ ID NO:46] | recognized in looped/cyclic form |  |
| FNGLTVLPPLLTDDM [SEQ ID NO:865] | recognized in looped/cyclic form |  |
| FSPDGKPCTPPALNC [SEQ ID NO:488] |  | recognized in linear form |
| GFIAGLIAIVMVTIL [SEQ ID NO:1215] | recognized in looped/cyclic form |  |
| GSDLDRCTTFDDVQA [SEQ ID NO:52] | recognized in looped/cyclic form |  |
| GTATAGWTFGAGAAL [SEQ ID NO:890] |  | recognized in linear form |
| GVYYPDEIFRSDTLY [SEQ ID NO:78] | recognized in looped/cyclic form |  |
| HTSPDVDLGDISGIN [SEQ ID NO:1155] | recognized in looped/cyclic form |  |
| HTSSMRGVYYPDEIF [SEQ ID NO:72] | recognized in looped/cyclic form |  |
| ICGDSTECANLLLQY [SEQ ID NO:752] |  | recognized in linear form |
| IFLLFLTLTSGSDLD [SEQ ID NO:42] | recognized in looped/cyclic form |  |
| IINNTVYDPLQPELD [SEQ ID NO:1130] | recognized in looped/cyclic form |  |
| INNTVYDPLQPELDS [SEQ ID NO:1131] | recognized in looped/cyclic form |  |
| IQESLTTTSTALGKL [SEQ ID NO:944] | recognized in looped/cyclic form |  |
| ITTEVMPVSMAKTSV [SEQ ID NO:732] | recognized in looped/cyclic form |  |
| KFNGLTVLPPLLTDD [SEQ ID NO:864] | recognized in looped/cyclic form |  |
| KNHTSPDVDLGDISG [SEQ ID NO:1153] | recognized in looped/cyclic form |  |
| KNLNESLIDLQELGK [SEQ ID NO:1187] | recognized in looped/cyclic form |  |

| Sequence | recognition by sera of SARS-CoV infected individuals, looped/cyclic form | recognition by sera of SARS-CoV infected individuals, linear form |
| --- | --- | --- |
| KTSVDCNMYICGDST [SEQ ID NO:743] |  | recognized in linear form |
| KYFKNHTSPDVDLGD [SEQ ID NO:1150] | recognized in looped/cyclic form |  |
| LDKVEAEVQIDRLIT [SEQ ID NO:994] | recognized in looped/cyclic form |  |
| LDKYFKNHTSPDVDL [SEQ ID NO:1148] | recognized in looped/cyclic form |  |
| LDSFKEELDKYFKNH [SEQ ID NO:1143] | recognized in looped/cyclic form |  |
| LFLTLTSGSDLDRCT [SEQ ID NO:45] | recognized in looped/cyclic form |  |
| LGFIAGLIAIVMVTI [SEQ ID NO:1214] | recognized in looped/cyclic form |  |
| LLFLTLTSGSDLDRC [SEQ ID NO:44] | recognized in looped/cyclic form |  |
| LNEVAKNLNESLIDL [SEQ ID NO:1182] | recognized in looped/cyclic form |  |
| LQDVVNQNAQALNTL [SEQ ID NO:958] | recognized in looped/cyclic form |  |
| LQPELDSFKEELDKY [SEQ ID NO:1139] | recognized in looped/cyclic form |  |
| LTLTSGSDLDRCTTF [SEQ ID NO:47] | recognized in looped/cyclic form |  |
| LTSGSDLDRCTTFDD [SEQ ID NO:49] | recognized in looped/cyclic form |  |
| LTTTSTALGKLQDVV [SEQ ID NO:948] | recognized in looped/cyclic form |  |
| LVSGTATAGWTFGAG [SEQ ID NO:887] |  | recognized in linear form |
| MFIFLLFLTLTSGSD [SEQ ID NO:40] | recognized in looped/cyclic form |  |
| MRGVYYPDEIFRSDT [SEQ ID NO:76] | recognized in looped/cyclic form |  |
| MYICGDSTECANLLL [SEQ ID NO:750] |  | recognized in linear form |
| NAQALNTLVKQLSSN [SEQ ID NO:965] | recognized in looped/cyclic form |  |
| NEVAKNLNESLIDLQ [SEQ ID NO:1183] | recognized in looped/cyclic form |  |
| NGLTVLPPLLTDDMI [SEQ ID NO:866] | recognized in looped/cyclic form |  |

| Sequence | recognition by sera of SARS-CoV infected individuals, looped/cyclic form | recognition by sera of SARS-CoV infected individuals, linear form |
| --- | --- | --- |
| NHTSPDVDLGDISGI [SEQ ID NO:1154] | recognized in looped/cyclic form |  |
| NLNESLIDLQELGKY [SEQ ID NO:1188] | recognized in looped/cyclic form |  |
| NMYICGDSTECANLL [SEQ ID NO:749] |  | recognized in linear form |
| NNTVYDPLQPELDSF [SEQ ID NO:1132] | recognized in looped/cyclic form |  |
| NQNAQALNTLVKQLS [SEQ ID NO:963] | recognized in looped/cyclic form |  |
| NTVYDPLQPELDSFK [SEQ ID NO:1133] | recognized in looped/cyclic form |  |
| NVPFSPDGKPCTPPA [SEQ ID NO:485] |  | recognized in linear form |
| PCTPPALNCYWPLND [SEQ ID NO:494] | recognized in looped/cyclic form |  |
| PELDSFKEELDKYFK [SEQ ID NO:1141] | recognized in looped/cyclic form |  |
| PFSPDGKPCTPPALN [SEQ ID NO:487] |  | recognized in linear form |
| PLQPELDSFKEELDK [SEQ ID NO:1138] | recognized in looped/cyclic form |  |
| PPALNCYWPLNDYGF [SEQ ID NO:497] | recognized in looped/cyclic form |  |
| QALNTLVKQLSSNFG [SEQ ID NO:967] | recognized in looped/cyclic form |  |
| QDVVNQNAQALNTLV [SEQ ID NO:959] | recognized in looped/cyclic form |  |
| QESLTTTSTALGKLQ [SEQ ID NO:945] | recognized in looped/cyclic form |  |
| QHTSSMRGVYYPDEI [SEQ ID NO:71] | recognized in looped/cyclic form |  |
| QIQESLTTTSTALGK [SEQ ID NO:943] | recognized in looped/cyclic form |  |
| QKFNGLTVLPPLLTD [SEQ ID NO:863] | recognized in looped/cyclic form |  |
| QNAQALNTLVKQLSS [SEQ ID NO:964] | recognized in looped/cyclic form |  |

From patent publication US20060110803A1 (Crucell Holland B.V., priority 2003, published 2006)
